ChEMBL document CHEMBL3046668, “Phytoene desaturase inhibition by O-(2-phenoxy)ethyl-N-aralkylcarbamates” (J Agric Food Chem, 2003)
pIC50: −log10 of the molar value.

Biological target: 15-cis-phytoene desaturase (Synechococcus elongatus (strain PCC 7942) (Anacystis nidulans R2), UniProt P26294)
Experiment: Inhibition of Synechococcus PCC 7942 phytoene desaturase expressed in Escherichia coli JM101 using phytoene as substrate after 8 hr by Dixon plot analysis
Conditions: read-out: I50

Chain of 15-cis-phytoene desaturase (P26294 whole entry): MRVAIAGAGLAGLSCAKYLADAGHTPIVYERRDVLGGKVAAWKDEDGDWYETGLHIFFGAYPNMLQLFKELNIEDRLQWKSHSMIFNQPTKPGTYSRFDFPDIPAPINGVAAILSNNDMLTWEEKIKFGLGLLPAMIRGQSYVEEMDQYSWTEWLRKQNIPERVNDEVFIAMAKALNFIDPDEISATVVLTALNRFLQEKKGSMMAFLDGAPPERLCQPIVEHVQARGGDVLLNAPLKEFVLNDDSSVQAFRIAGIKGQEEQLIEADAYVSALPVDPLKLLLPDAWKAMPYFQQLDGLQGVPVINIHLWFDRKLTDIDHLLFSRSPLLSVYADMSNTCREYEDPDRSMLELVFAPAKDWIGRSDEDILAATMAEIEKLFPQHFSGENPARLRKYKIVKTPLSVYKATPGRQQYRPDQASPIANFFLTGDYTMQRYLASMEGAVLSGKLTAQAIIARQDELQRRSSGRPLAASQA

Row | SMILES | pIC50
1 | CNc1cnn(-c2cccc(C(F)(F)F)c2)c(=O)c1Cl [NORFLURAZONE] | 7.54
2 | CCC(COc1cccc(C(F)(F)F)c1)OC(=O)NCc1ccccc1 (stereo not drawn) | 7.89
3 | CCC(CSc1cccc(Cl)c1)OC(=O)NCc1ccccc1 (stereo not drawn) | 5.27
